Measured values from ChEMBL document CHEMBL4024706 (Eur J Med Chem, 2017).

Assays:
[1] = target: Ephrin type-A receptor 7 (Homo sapiens) (UniProt Q15375); assay: Inhibition of wild-type human partial length EPHA7 (Y608 to S912 residues) expressed in bacterial expression system assessed as residual activity at 1 uM by Kinomescan method relative to control
[2] = target: Ribosomal protein S6 kinase alpha-3 (Homo sapiens) (UniProt P51812); assay: Inhibition of wild-type human partial length C-terminal RSK2 kinase domain 2 (V402 to S715 residues) expressed in mammalian expression system assessed as residual activity at 1 uM by Kinomescan method relative to control
[3] = system: Proto-oncogene tyrosine-protein kinase receptor Ret (Homo sapiens), P07949 [V804M]; assay: Inhibition of human partial length RET V804M mutant (E713 to D1014 residues) expressed in bacterial expression system assessed as residual activity at 1 uM by Kinomescan method relative to control
[4] = system: Tyrosine-protein kinase ABL1 (Homo sapiens), P00519 [F317I]; assay: Inhibition of human non-phosphorylated ABL1 F317I mutant (S229 to K512 residues) expressed in mammalian expression system assessed as residual activity at 1 uM by Kinomescan method relative to control
[5] = target: Myosin light chain kinase family member 4 (Homo sapiens) (UniProt Q86YV6); assay: Inhibition of wild-type human partial length MYLK4 (V79 to S380 residues) expressed in bacterial expression system assessed as residual activity at 1 uM by Kinomescan method relative to control
[6] = target: Myotonin-protein kinase (Homo sapiens) (UniProt Q09013); assay: Inhibition of wild-type human partial length DMPK (V47 to V415 residues) expressed in bacterial expression system assessed as residual activity at 1 uM by Kinomescan method relative to control
[7] = target: MAP kinase-activated protein kinase 2 (Homo sapiens) (UniProt P49137); assay: Inhibition of wild-type human partial length MAPKAPK2 (V48 to D345 residues) expressed in bacterial expression system assessed as residual activity at 1 uM by Kinomescan method relative to control
[8] = target: Tyrosine-protein kinase Fes/Fps (Homo sapiens) (UniProt P07332); assay: Inhibition of wild-type human partial length FES (I527 to R822 residues) expressed in bacterial expression system assessed as residual activity at 1 uM by Kinomescan method relative to control
[9] = target: Serine/threonine-protein kinase PLK4 (Homo sapiens) (UniProt O00444); assay: Inhibition of wild-type human partial length PLK4 (M1 to S273 residues) expressed in mammalian expression system assessed as residual activity at 1 uM by Kinomescan method relative to control
[10] = target: Serine/threonine-protein kinase 10 (Homo sapiens) (UniProt O94804); assay: Inhibition of wild-type human partial length LOK (E16 to V314 residues) expressed in bacterial expression system assessed as residual activity at 1 uM by Kinomescan method relative to control
[11] = target: Serine/threonine-protein kinase RIO3 (Homo sapiens) (UniProt O14730); assay: Inhibition of wild-type human full length RIOK3 (M1 to E519 residues) expressed in bacterial expression system assessed as residual activity at 1 uM by Kinomescan method relative to control
[12] = target: Aurora kinase C (Homo sapiens) (UniProt Q9UQB9); assay: Inhibition of wild-type human full length AURKC (M1 to S275 residues) expressed in bacterial expression system assessed as residual activity at 1 uM by Kinomescan method relative to control
[13] = target: Serine/threonine-protein kinase PAK 1 (Homo sapiens) (UniProt Q13153); assay: Inhibition of wild-type human partial length PAK1 (S149 to H545 residues) expressed in bacterial expression system assessed as residual activity at 1 uM by Kinomescan method relative to control
[14] = Tmax in Sprague-Dawley rat at 1 mg/kg, iv by LC-MS/MS method; format: ADME, organism-based; conditions: in vivo
[15] = target: Tyrosine-protein kinase Mer (Homo sapiens) (UniProt Q12866); assay: Inhibition of wild-type human partial length MERTK (R557 to L884 residues) expressed in bacterial expression system assessed as residual activity at 1 uM by Kinomescan method relative to control
[16] = target: Tyrosine-protein kinase receptor TYRO3 (Homo sapiens) (UniProt Q06418); assay: Inhibition of wild-type human partial length TYRO3 (S497 to T814 residues) expressed in bacterial expression system assessed as residual activity at 1 uM by Kinomescan method relative to control
[17] = target: Testis-specific serine/threonine-protein kinase 1 (Homo sapiens) (UniProt Q9BXA7); assay: Inhibition of wild-type human full length TSSK1B (M1 to Q367 residues) expressed in bacterial expression system assessed as residual activity at 1 uM by Kinomescan method relative to control
[18] = target: Calcium/calmodulin-dependent protein kinase type II subunit alpha (Homo sapiens) (UniProt Q9UQM7); assay: Inhibition of wild-type human partial length CAMK2A (M1 to K328 residues) expressed in bacterial expression system assessed as residual activity at 1 uM by Kinomescan method relative to control
[19] = target: Casein kinase II subunit alpha' (Homo sapiens) (UniProt P19784); assay: Inhibition of wild-type human full length CSNK2A2 (M1 to R350 residues) expressed in mammalian expression system assessed as residual activity at 1 uM by Kinomescan method relative to control
[20] = target: NUAK family SNF1-like kinase 1 (Homo sapiens) (UniProt O60285); assay: Inhibition of wild-type human partial length ARK5 (E25 to I332 residues) expressed in bacterial expression system assessed as residual activity at 1 uM by Kinomescan method relative to control
[21] = target: Cyclin-dependent kinase 11A (Homo sapiens) (UniProt Q9UQ88); assay: Inhibition of wild-type human partial length CDC2L2 (D391 to K730 residues) expressed in bacterial expression system assessed as residual activity at 1 uM by Kinomescan method relative to control
[22] = target: Ribosomal protein S6 kinase alpha-1 (Homo sapiens) (UniProt Q15418); assay: Inhibition of wild-type human partial length N-terminal RSK1 Kinase domain 1 (M1 to E388 residues) expressed in bacterial expression system assessed as residual activity at 1 uM by Kinomescan method relative to control
[23] = target: Phosphatidylinositol 5-phosphate 4-kinase type-2 beta (Homo sapiens) (UniProt P78356); assay: Inhibition of wild-type human full length PIP5K2B (M1 to T416 residues) expressed in bacterial expression system assessed as residual activity at 1 uM by Kinomescan method relative to control
[24] = target: Mitogen-activated protein kinase kinase kinase kinase 3 (Homo sapiens) (UniProt Q8IVH8); assay: Inhibition of wild-type human partial length MAP4K3 (M1 to D301 residues) expressed in bacterial expression system assessed as residual activity at 1 uM by Kinomescan method relative to control
[25] = target: Cyclin-dependent kinase 7 (Homo sapiens) (UniProt P50613); assay: Inhibition of wild-type human full length CDK7 (M1 to L344 residues) expressed in mammalian expression system assessed as residual activity at 1 uM by Kinomescan method relative to control

Work on `C=CC(=O)Nc1cc(Nc2cc(-c3cccc(NC(=O)c4ccc(C(C)(C)C)cc4)c3C)cn(C)c2=O)ccc1C(=O)N1CCOCC1` yielded an Activity [1] of 98%, an Activity [2] of 96% and an Activity [3] of 96%. The Activity [4] was 78%, the Activity [5] was 88% and the Activity [6] was 95%. For the same compound, the Activity [7] was 88%, the Activity [8] was 84% and the Activity [9] was 99%. It also gave an Activity [10] of 94%, an Activity [11] of 78% and an Activity [12] of 100%. The Activity [13] was 90%, the Tmax [14] was 1.02 min and the Activity [15] was 100%. It also gave an Activity [16] of 75%, an Activity [17] of 98% and an Activity [18] of 100%. The Activity [19] was 100%, the Activity [20] was 100% and the Activity [21] was 94%. It also gave an Activity [22] of 87%, an Activity [23] of 82% and an Activity [24] of 95%. For the same compound, the Activity [25] was 89%.
